Data published in US12049646B2, “SC-beta cells and compositions and methods for generating the same” (President and Fellows of Harvard College, priority 2013, dated 2024).

Columns and labels:
Format in all cases: cell-based, human
SC-β cells [1] = assay: Insulin secretion of plated SC-β cells treated with anti-diabetic drugs in 2 and 20 mM glucose; conditions: drug-treated versus control
Description: The inventors first tested whether SC-β cells could respond to existing anti-diabetic drugs from several different classes (FIG. 16B). LY2608204 is glucokinase activator in clinical trials while liraglutide, tolbutamide, and nateglinide are examples of GLP-1 agonists and secretagogues (sulfonylureas and meglitinides), respectively, that have been used clinically (Matschinsky, 2009; Modi, 2007; Vetere et al., 2014).

hPSC derived cells = assay: Protocol modifications at Steps 3-6: cell survival and marker-positive populations; conditions: for cell survival: treatment during Steps 3-5 of differentiation
Description: One challenge for the stem cell field has been generating a sufficient quantity of SC-β cells that can be useful for drug screening, disease modeling, or therapeutic use. For example, hES cells are technically difficult to culture, are vulnerable to apoptosis upon cellular detachment and dissociation, undergo massive cell death particularly after complete dissociation, and have low cloning efficiency. (Watanabe, K. et al., Nature Biotechnology 25, 681-686 (2007)). As a result, the quantity of viable SC-β cells yielded may be low. By modify the protocol between Steps 3 and 6 in the manner shown in FIG. 15A, more pure NKX6.1+ endocrine clusters can be generated (FIG. 15B) leading to more SC-β cells that can be therapeutically useful.
In Steps 3-5, for instance, cell survival can be improved by adding a rho-associated protein kinase inhibitor, or a Rock inhibitor. It is believed that the addition of a Rock inhibitor enhances survival of ES cells by preventing dissociation-induced apoptosis thus increasing their cloning efficiency. (Watanabe et al.) Examples of Rock inhibitors include, but are not limited to, Y-27632, Fasudil/HA1077, and H-1152.
In addition to treating the cells with a Rocki inhibitor, the cells in Steps 3-4 can be treated with ActivinA alone or in combination with Nicotinamide. […] Since SOX2 and NKX6-1 are mutually exclusive (FIG. 15E), down-regulation of SOX2 results in the up-regulation of NKX6-1, a marker for a mature pancreatic β cell.
In Steps 5-6, cell survival can further be enhanced by treating cells with staurosporine. Staurosporine is known to be an activator of neuronal, glial, and stem cell-like neurosphere differentiation and is also thought to induce apoptosis. (Schumacher, et al., Mol. Cell. Neurosci. 2003; 23(4): 669-680).
Finally, cell survival can further be enhanced by treating cells with a culture medium containing Alk5i, T3 in combination with XXI, a γ-secretase inhibitor that improves β cell maturation.
Cells were dispersed into single-cell suspension by incubation in TrypLE Express at 37° C. for 10-30 min in a 15 ml falcon tube. Starting at stage 5, clusters take longer to dissociate into single cells. Clusters should be incubated with TrypLE Express until they dissociate to single cells upon mixing by pipetting gently up and down with a P1000. The TrypLE Express was quenched with 3-4 times media and cells were spun down for 5 min at 1000 rpm. Cells were washed twice in PBS and transferred to a 1.7 ml Safe seal microcentrifuge tube (Bioscience Inc.; 11510). Make sure having 1-10 mio cells/tube and use 0.5-1 ml volumes in the following. Cells were resuspended in 4% paraformaldehyde (PFA) (Electron Microscopy Science Nm; 15710) and incubated on ice for 30 min. Cells were then washed 3 times in PBS followed by incubation in blocking buffer (PBS+0.1% TritonX100 (VWR; EM-9400)+5% donkey serum (Jackson Immunoresearch; 017-000-121)) on ice for 1 hour. After fixation cells are more resistant to centrifugation, so after fixation all centrifugations were done at 3000 g for 3 min. Cells were then resuspended in blocking buffer with primary antibodies and incubated at 4° C. overnight. […]

SC-β cells [2] = assay: GSIS of SC-β cells after adding factors to the CMRL media at the last differentiation step (Stage 6); conditions: factor added to CMRL media containing Alk5 inhibitor and T3 hormone, versus CMRL only, CMRL+Alk5 inhibitor+T3 or S3+Alk5 inhibitor+T3; for stimulation index (ratio of insulin secreted in high glucose to low glucose): 15 mM vs 2.5 mM glucose
Description: To induce the in vitro maturation of at least some of the Pdx1-positive, NKX6-1-positive, insulin-positive endocrine cells into SC-β cells, the Pdx1-positive, NKX6-1-positive, insulin-positive endocrine cells are maintained in a suitable culture medium for a sufficient period of time. […] Adding additional factors to the CMRL media at the last step of differentiation (Stage 6) (FIG. 14A), however, was also found to generate a better glucose stimulated insulin secretion (GSIS) response by SC-β cells as measured by either stimulation index between high and low glucose challenges or by the amount of insulin released. Such additional factors may include, but are not limited to, Sant1, XXI, and SSP. The stimulation index, as calculated by the ratio of insulin secreted in high glucose (15 mM) to low glucose (2.5 mM), was greater for the SC-β cells maintained in a CMRL media containing Alk5 inhibitor, T3 hormone and either Sant1, XXI or SSP than those SC-β cells maintained in only CMRL media, CMRL media containing Alk5 inhibitor and T3 hormone, or S3 media containing Alk5 inhibitor and T3 hormone (FIG. 14B). Furthermore, the amount of insulin secreted was greater for the SC-β cells maintained in a CMRL media containing Alk5 inhibitor, T3 hormone and either Sant1, XXI or SSP than those SC-β cells maintained in only CMRL media, CMRL media containing Alk5 inhibitor and T3 hormone, or S3 media containing Alk5 inhibitor and T3 hormone (FIG. 14C).
Alternatively, Days 21-35: CMRLS+10 μM Alk5i II+1 μM T3+Sant1.
Alternatively, Days 21-35: CMRLS+10 μM Alk5i II+1 μM T3+XXI.
Alternatively, Days 21-35: CMRLS+10 μM Alk5i II+1 μM T3+SSP.

O=C(Nc1ncc(SCCN2CCCC2)s1)[C@]1(c2ccc(S(=O)(=O)C3CC3)cc2)C[C@H]1C1CCCCC1 [LY2608204]
insulin secretion of SC-β cells following a glucose challenge (SC-β cells [1]): trend toward responding to treatment with these drugs by increasing insulin secretion

NC(=O)c1cccnc1 [Nicotinamide]
cell survival (hPSC derived cells): improve cell survival

Cc1nn(-c2ccccc2)c(C)c1/C=N/N1CCN(Cc2ccccc2)CC1 [Sant1]
stimulation index (ratio of insulin secreted in high glucose to low glucose) (SC-β cells [2]): greater | amount of insulin secreted (SC-β cells [2]): greater

C[C@H](NC(=O)Cc1cc(F)cc(F)c1)C(=O)N[C@H]1N=C(c2ccccc2)c2ccccc2N(C)C1=O [XXI]
NeuroD1+ population (hPSC derived cells; added to medium with Alk5i and T3 at Steps 5 and 6, versus Alk5i and T3 only): increase the NeuroD1+ population | stimulation index (ratio of insulin secreted in high glucose to low glucose) (SC-β cells [2]): greater | amount of insulin secreted (SC-β cells [2]): greater

CC(C)[C@H]1CC[C@H](C(=O)N[C@H](Cc2ccccc2)C(=O)O)CC1 [nateglinide]
insulin secretion of SC-β cells following a glucose challenge (SC-β cells [1]): trend toward responding to treatment with these drugs by increasing insulin secretion

CN[C@@H]1C[C@H]2O[C@@](C)([C@@H]1OC)n1c3ccccc3c3c4c(c5c6ccccc6n2c5c31)C(=O)NC4 [staurosporine]
percentage of Chromogranin A (pancreatic endocrine cell marker) (hPSC derived cells; treatment in Steps 5-6): increasing the percentage of Chromogranin A | percentage of NKX6-1/C-peptide+ cells (hPSC derived cells; treatment in Steps 5-6): increasing the percentage of NKX6-1.C-peptide+ cells

CCCCNC(=O)NS(=O)(=O)c1ccc(C)cc1 [tolbutamide]
insulin secretion of SC-β cells following a glucose challenge (SC-β cells [1]): trend toward responding to treatment with these drugs by increasing insulin secretion

B1: Activin A: growth factor from the TGF-β superfamily (protein, UniProt P08476 311-426, looked up)
Inhibin beta A chain: GLECDGKVNICCKKQFFVSFKDIGWNDWIIAPSGYHANYCEGECPSHIAGTSGSSLSFHSTVINHYRMRGHSPFANLKSCCVPTKLRPMSMLYYDDGQNIIKKDIQNMIVEECGCS
modifications: Inhibin beta A chain
notes: growth factor from the TGF-β superfamily
cell survival (hPSC derived cells): improve cell survival
